Reference: patent US4668799A, “Anti-hepatitis and anti-cirrhotic 1,3-dithiol-2-ylidene derivatives, and pharmaceutical compositions therefor” (Banyu Pharmaceutical Co., Ltd., priority 1985, dated 1987)
Read-outs that look alike come from different tables or passages of the source.

Columns and labels:
Acute Toxicity Test = format: in vivo; conditions: mouse, in vivo; mice, oral, mortality one week after administration
Experimental: (§1) A test compound was dissolved or suspended in olive oil and administered orally to mice (ddY mice, .male., 23±2 g, n=5). The acute toxicity value (LD50) was determined from the mortality one week after the administration.

mice = test: Acute Toxicity Test; format: in vivo; conditions: oral, one week after administration
Experimental: as §1

[1] = test system: liver (acute liver injury induced by carbon tetrachloride); test: Protective Effect on Acute Liver Injury Induced by Carbon Tetrachloride; format: in vivo, mice (ddY); conditions: mice; for inhibition in vivo at 50 mg/kg: Mus musculus, po, 50 mg/kg p.o. 6 h before CCl4, CCl4 alone = 0, normal = 100; for Liver Damage Index: 50 mg/kg p.o. 6 h before CCl4 0.05 ml/kg p.o., visual score 0 normal, 2 slightly, 4 distinctly, 6 remarkably injured, CCl4 alone 6.0
Experimental: A test compound was dissolved or suspended in olive oil and administered orally at a dose of 50 mg/kg to mice (ddY, mice, .male., 23±2 g, n=5). After 6 hours, carbon tetrachloride (0.05 ml/kg) was administered orally, 24 Hours after the administration of carbon tetrachloride, BSP (sodium sulfobromophthalene; 75 mg/kg) was administered intravenously. Thirty minutes later, the cardiac blood was collected, and GPT (glutamic-pyruvic transaminase) activity and the retention rate of BSP in the plasma were measured. Further, the liver injury immediately after the collection of the blood was visually observed and evaluated by the following score for liver damage index.

liver damages = conditions: in vivo; cited from earlier work
[2] = test system: fatty liver induced by carbon tetrachloride; test: Therapeutic Effect on Fatty Liver Induced by Carbon Tetrachloride; format: in vivo, rats (SD strain); conditions: rats, 50 mg/kg p.o. for 7 days
Experimental: Carbon tetrachloride (1 ml/kg) was subcutaneously administered to rats (SD strain, .male., 38 week-old, n=5) for 4 days. Upon expiration of 3 days from the administration of carbon tetrachloride, Compound 6 was orally given successively for 7 days at the dose of 50 mg/kg. On the 8th day, the animals were sacrificed by exsanguination. The therapeutic effect was evaluated by examining the content of triglyceride in the liver and the concentration of apoprotein B in the plasma.

liver protein synthesis = test: Effect on Protein Synthesis in Liver; format: in vivo, rats (Wister strain); conditions: rats, 100 mg/kg p.o. for 3 days
Experimental: Compound 6 was dissolved in olive oil and orally administered successively for 3 days at a dose of 100 mg/kg to rats (Wister strain, .male., 180±10 g, 6 week-old, n=5). 24 Hours after the administration of the test compound was completed, the animals were sacrificed. The effect on the protein synthesis in the liver was evaluated by determining the liver weight and protein content.

[3] = BSP 75 mg/kg i.v., retention in plasma after 30 min, read-out: % Prophylaxis BSP
[4] = plasma GPT activity, read-out: % Prophylaxis p-GPT

Compound | LD50 at 168 h (Acute Toxicity Test) [mg/kg] | toxicity (in words) (mice) | inhibition in vivo at 50 mg/kg [1, 3] [%] | inhibition in vivo at 50 mg/kg [1, 4] [%] | Liver Damage Index [1] | also measured
CC(=O)C(C(=O)c1ccc(O)cc1)=C1SC=CS1 [Compound 45, 2-(1,3-dithiol-2-ylidene)-1-(4-hydroxyphenyl)-1,3-butanedione] | ≥ 2000 | low toxicity | – | – | – | –
CC1(C)CC(=O)C(=C2SC=CS2)C(=O)C1 [Compound 44, 2-(1,3-dithiol-2-ylidene)-5,5-dimethyl-1,3-cyclohexanedione] | – | – | 111 | 95 | 1.2 | –
CC(=O)C(C(=O)c1ccc2ccccc2c1)=C1SC=CS1 [Compound 28, 2-(1,3-dithiol-2-ylidene)-1-(2-naphthyl)-1,3-butanedione] | ≥ 2000 | low toxicity | – | – | – | –
CC(C)CC(=O)C(C(=O)c1ccccc1)=C1SC=CS1 [Compound 8, 2-(1,3-dithiol-2-ylidene)-5-methyl-1-phenyl-1,3-hexanedione] | ≥ 2000 | low toxicity | – | – | – | –
CC(C)OC(=O)C(C(=O)OC(C)C)=C1SC=CS1 [Malotilate] | – | – | – | – | – | effectiveness for the treatment of liver damages (in words) (liver damages): effective for the treatment of liver damages
CCOCC(=O)C(C(C)=O)=C1SC=CS1 [Compound 3, 3-(1,3-dithiol-2-ylidene)-1-ethoxy-2,4-pentanedione] | – | – | 102 | 97 | 2.2 | –
CC(C)C1CCC(=O)C(=C2SC=CS2)C1=O (centres unmarked) [Compound 43, 2-(1,3-dithiol-2-ylidene)-4-isopropyl-1,3-cyclohexanedione] | – | – | 95 | 67 | 5.6 | –
COc1ccc(C(=O)C(C(C)=O)=C2SC=CS2)cc1 [Compound 17, 2-(1,3-dithiol-2-ylidene)-1-(4-methoxyphenyl)-1,3-butanedione] | ≥ 2000 | low toxicity | – | – | – | –
CCCCCCCCCCCCCCCC(=O)C(C(=O)c1ccccc1)=C1SC=CS1 [Compound 10, 2-(1,3-dithiol-2-ylidene)-1-phenyl-1,3-octadecanedione] | – | – | 78 | 42 | 2.0 | –
CC(=O)C(C(C)=O)=C1SC=CS1 [Compound 1, 3-(1,3-dithiol-2-ylidene)-2,4-pentanedione] | – | – | 80 | 25 | 5.0 | –
CCCC(=O)C(C(=O)c1ccccc1)=C1SC=CS1 [Compound 7, 2-(1,3-dithiol-2-ylidene)-1-phenyl-1,3-hexanedione] | ≥ 2000 | low toxicity | – | – | – | –
CC(=O)C(C(=O)c1cccc2ccccc12)=C1SC=CS1 [Compound 27, 2-(1,3-dithiol-2-ylidene)-1-(1-naphthyl)-1,3-butanedione] | ≥ 2000 | low toxicity | – | – | – | –
CCC(=O)C(C(C)=O)=C1SC=CS1 [Compound 2, 3-(1,3-dithiol-2-ylidene)-2,4-hexanedione] | – | – | 85 | 72 | 1.4 | –
CC(C)CC(=O)C(C(=O)CC(C)C)=C1SC=CS1 [Compound 4, 5-(1,3-dithiol-2-ylidene)-2,8-dimethyl-4,6-nonanedione] | ≥ 2000 | low toxicity | 108 | 100 | 1.0 | –
CC1CCC(=O)C(=C2SC=CS2)C1=O (centres unmarked) [Compound 42, 2-(1,3-dithiol-2-ylidene)-4-methyl-1,3-cyclohexanedione] | – | – | 60 | 29 | 6.0 | –
O=C1CCCC(=O)C1=C1SC=CS1 [Compound 41, 2-(1,3-dithiol-2-ylidene)-1,3-cyclohexanedione] | – | – | 66 | 29 | 6.0 | –
CC(=O)C(C(=O)c1ccccc1)=C1SC=CS1 [Compound 6, 2-(1,3-dithiol-2-ylidene)-1-phenyl-1,3-butanedione] | ≥ 2000 | low toxicity | – | – | – | effect for curing the fatty liver (in words) [2]: significant effect for curing the fatty liver; effect for stimulating the protein metabolic function of the liver (in words) (liver protein synthesis): substantial effect for stimulating the protein metabolic function of the liver
CC(=O)C(C(=O)c1ccc(C)cc1)=C1SC=CS1 [Compound 12, 2-(1,3-dithiol-2-ylidene)-1-(4-methylphenyl)-1,3-butanedione] | ≥ 2000 | low toxicity | – | – | – | –
CC(=O)C(C(=O)C1CCCCC1)=C1SC=CS1 [Compound 5, 2-(1,3-dithiol-2-ylidene)-1-cyclohexyl-1,3-butanedione] | ≥ 2000 | low toxicity | 96 | 89 | 2.8 | –
